# In patent US20110136867A1, “Treatment of Synucleinopathies” (priority 2006, published 2011):
# Entries after “also recorded” stand apart in the source; their conditions may differ.
# Experiments:
# [1] = tested on: ubiquitin-immunoreactive inclusions; assay: Ubiquitin immunohistochemistry in brain of α-synuclein transgenic mice; format: in vivo; conditions: 35 mg/kg twice a day, 30 days; vs vehicle
# Protocol: (§1) Farnesyl transferase inhibitors Zarnestra and OSI-754 were administered to mice of the α-synuclein transgenic line described in Masliah et al. (Masliah et al. “Dopaminergic loss and inclusion body formation in alpha-synuclein mice: implications for neurodegenerative disorders” Science 287(5456):1265-69, 2000; incorporated herein by reference). Animals from this line have α-synuclein neuronal inclusions in the cortex, hippocampus, and the olfactory bulb (Masliah et al. “Dopaminergic loss and inclusion body formation in alpha-synuclein mice: implications for neurodegenerative disorders” Science 287(5456):1265-69, 2000; incorporated herein by reference). Transgenic mice were orally administered either FTI in 20% cyclodextrin solution or the same volume of vehicle alone twice a day for 30 or 90 days. In some cases, non-transgenic mice also received vehicle twice a day for 30 to 90 days. At the end of treatment, mice were sacrificed, and the brains removed and hemisected. […]
# (§2) Formation of α-synuclein inclusions in the cortex and hippocampus was probed by immunostaining with an antibody for human α-synuclein. Cells positive for human α-synuclein were quantified. […] These regions were also analyzed for ubiquitin-immunoreactive inclusions and by the Campbell Switzer method of silver staining. […]
# farnesylated UCH-L1 = assay: Quantitative Western Blot of farnesylated UCH-L1 in cortex membrane fraction of α-synuclein transgenic mice; format: in vivo; conditions: 35 mg/kg twice a day, 30 days, 35 mg/kg
# Protocol: Farnesyl transferase inhibitors Zarnestra and OSI-754 were administered to mice of the α-synuclein transgenic line described in Masliah et al. (Masliah et al. “Dopaminergic loss and inclusion body formation in alpha-synuclein mice: implications for neurodegenerative disorders” Science 287(5456):1265-69, 2000; incorporated herein by reference). Animals from this line have α-synuclein neuronal inclusions in the cortex, hippocampus, and the olfactory bulb (Masliah et al. “Dopaminergic loss and inclusion body formation in alpha-synuclein mice: implications for neurodegenerative disorders” Science 287(5456):1265-69, 2000; incorporated herein by reference). Transgenic mice were orally administered either FTI in 20% cyclodextrin solution or the same volume of vehicle alone twice a day for 30 or 90 days. In some cases, non-transgenic mice also received vehicle twice a day for 30 to 90 days. At the end of treatment, mice were sacrificed, and the brains removed and hemisected. One hemisphere of each was fixed in 4% paraformaldehyde/PBS (pH 7.4), cryoperserved, then sectioned for histology. […]
# Farnesylated UCH-L1 in the cortex is contained in the membrane fraction. The amount of UCH-L1 was determined by quantitative Western Blot.
# Total α-synuclein levels were analyzed by a sandwich ELISA assay. […] The amount of farnesylated UCH-L1 was determined by quantitative Western Blot, then normalized to actin.
# α-synuclein [2] = assay: Immunostaining for human α-synuclein in brain sections of α-synuclein transgenic mice; format: in vivo; conditions: 35 mg/kg twice a day orally, 30 days, vs vehicle
# Protocol: (§3) Farnesyl transferase inhibitors Zarnestra and OSI-754 were administered to mice of the α-synuclein transgenic line described in Masliah et al. (Masliah et al. “Dopaminergic loss and inclusion body formation in alpha-synuclein mice: implications for neurodegenerative disorders” Science 287(5456):1265-69, 2000; incorporated herein by reference). Animals from this line have α-synuclein neuronal inclusions in the cortex, hippocampus, and the olfactory bulb (Masliah et al. “Dopaminergic loss and inclusion body formation in alpha-synuclein mice: implications for neurodegenerative disorders” Science 287(5456):1265-69, 2000; incorporated herein by reference). Transgenic mice were orally administered either FTI in 20% cyclodextrin solution or the same volume of vehicle alone twice a day for 30 or 90 days. In some cases, non-transgenic mice also received vehicle twice a day for 30 to 90 days. At the end of treatment, mice were sacrificed, and the brains removed and hemisected. One hemisphere of each was fixed in 4% paraformaldehyde/PBS (pH 7.4), cryoperserved, then sectioned for histology. The other hemisphere was subdivided into four brain regions, including the cortex and hippocampus, that were homogenized and processed into cytoplasmic and membrane fractions.
# Formation of α-synuclein inclusions in the cortex and hippocampus was probed by immunostaining with an antibody for human α-synuclein. Cells positive for human α-synuclein were quantified. […] These regions were also analyzed for ubiquitin-immunoreactive inclusions and by the Campbell Switzer method of silver staining. Ubiquitin is known to be a constituent of Lewy Bodies and in the α-synculein inclusions found in the transgenic mouse line used in the study (Masliah et al. “Dopaminergic loss and inclusion body formation in alpha-synuclein mice: implications for neurodegenerative disorders” Science 287(5456):1265-69, 2000; incorporated herein by reference). […] Campbell-Switzer staining is a general marker of Lewy Body type inclusions (Uchihara et al. “Silver stainings distinguish Lewy bodies and glial cytoplasmic inclusions: comparison between Gallyas-Braak and Campbell-Switzer methods” Acta Neuropathol. (Berl.) 110(3):255-60, 2005; incorporated herein by reference).
# [3] = tested on: Lewy body-like inclusions; assay: Campbell Switzer silver staining of Lewy body-like inclusions in α-synuclein transgenic mice; format: in vivo; conditions: 35 mg/kg twice a day, 30 days; vs vehicle
# Protocol: as §1, §2
# α-synuclein [4] = assay: Sandwich ELISA of total α-synuclein in brain fractions of α-synuclein transgenic mice; format: in vivo; conditions: 35 mg/kg twice a day, 30 days
# Protocol: as §3
# Total α-synuclein levels were analyzed by a sandwich ELISA assay similar to one previously described (El-Agnaf et al. “Detection of oligomeric forms of alpha-synuclein protein in human plasma as a potential biomarker for Parkinson's disease” FASEB J. 20(3):419-25, 2006; incorporated herein by reference). In the cortex of vehicle treated animals, α-synuclein protein levels in the α-synuclein transgenic line are greater than in non-transgenic mice in both cytoplasmic (FIG. 10) and membrane fractions (FIG. 11).
# α-synuclein [5] = assay: α-synuclein degradation assay in transfected COS-7 cells (quantitative Western blotting); format: cell-based; conditions: transfected COS-7 cells, 35 μM lactacystin, 24 hours
# From the text: Plasmids: C220S cDNA was generated by PCR site-specific mutagenesis. For the PCR, the 5′ primer is uchforw SEQ ID NO: 1 ([…]), and 3′ primer is uchc220s SEQ ID NO:2 (CTAAGA […]). Wt UCH-L1 served as the template. The PCR fragment was inserted into pcDNA vector. For S18YC220S mutant, S18Y UCH-L1 served as the template in PCR. For the FLAG tagged UCH-L1, the 5′ primer is FLAGuchforw SEQ ID NO: 3 ([…] CGATGGAG), and the 3′ primer is uchrev SEQ ID NO: 4 ([…]). Wt UCH-L1 or C220S served as the template. PCR fragment was purified and inserted into pcDNA vector. For the FLAG tagged UCH-L3, the 5′ primer is L3HindIII SEQ ID NO: 5 (CTAAAGCTTATGGACTAC […]), the 3′primer is L3XhoISAA SEQ ID NO: 6 ([…]). […] After 24 hours of incubation, the cells were lysed with Tris buffer (50 mM Tris, 2% SDS, 0.1% NP-40), and subjected to SDS-PAGE, followed by quantitative Western blotting.
# Western Blotting: Following transfer of SDS gels onto NC membrane, all membranes were blocked with 5% non-fat milk in TBST (50 mM Tris-HCl pH7.4, 150 mM NaCl, 0.1% Tween 20), and incubated with primary antibody overnight with 1% BSA in TBST, washed three times with TBST, and incubated with horseradish peroxidase-conjugated secondary antibody for 1 hour (Promega). Bound antibodies were detected using enhanced chemiluminascence (NEM). […]
# [6] = cortex, vs vehicle-treated transgenic mice
Compound,ubiquitin-immunoreactive inclusions [1],amount of farnesylated UCH-L1 (farnesylated UCH-L1),α-synuclein-positive cells per mm^2 (α-synuclein [2]; cortex),α-synuclein-positive cells per mm^2 (α-synuclein [2]; hippocampus),inclusions by Campbell-Switzer staining [3],levels of α-synuclein protein in the cortex (α-synuclein [4]),"α-synuclein protein levels, cytoplasmic fraction (α-synuclein [4]; [6])","α-synuclein protein levels, membrane fraction (α-synuclein [4]; [6])","accumulation of α-synuclein (16 KDa, normalized against actin) (α-synuclein [5])"
Cn1cncc1C(N)(c1ccc(Cl)cc1)c1ccc2c(c1)c(-c1cccc(Cl)c1)cc(=O)n2C (stereo not drawn) [Zarnestra],fewer ubiquitin-immunoreactive inclusions,decreased; also recorded: decreased the amount of farnesylated UCH-L1 in transgenic mice to levels similar to non-transgenic mice,significantly fewer,significantly fewer,fewer inclusions,decreased levels of α-synuclein protein,lower α-synuclein protein levels,lower α-synuclein protein levels,–
CC(=O)N[C@@H](CSC(=O)[C@]1([C@@H](O)C(C)C)NC(=O)[C@H](C)[C@@H]1O)C(=O)O [lactacystin],–,–,–,–,–,–,–,–,100%
